Like-named read-outs stand apart in the source and are kept apart here.
Assays:
CRAF = CRAF (Homo sapiens, UniProt P04049); test: Reaction Biology kinase HotSpot enzyme assay; type: biochemical; conditions: 1 µM ATP, mean ± S.D. of two separate experiments
Experimental: (§1) Reaction Biology Corp. Kinase HotSpotTM service http://www.reactionbiology.com was used for screening of compounds IC50 Proﬁler Express for IC50 measurement. Assay protocol: In a ﬁnal reaction volume of 25 μL, kinase (5–10 mU) is incubated with 25 mM Tris pH 7.5, 0.02 mM EGTA, 0.66 mg/mL myelin basic protein, 10 mM magnesium acetate and [γ33P-ATP] (speciﬁc activity approx. 500 cpm/pmol, concentration as required). The reaction is initiated by the addition of the Mg-ATP mix. After incubation for 40 min at room temperature, the reaction is stopped by the addition of 5 μL of a 3% phosphoric acid solution. 10 μL of the reaction is then spotted onto a P30 ﬁltermat, and washed three times for 5 min in 75 mM phosphoric acid and once in methanol prior to drying and scintillation counting.

V600EBRAF = molecular target: T1, V600EBRAF (Homo sapiens, UniProt P15056, V600E); test: Reaction Biology kinase HotSpot enzyme assay; type: biochemical; conditions: 1 µM ATP; for IC50: mean ± S.D. of two separate experiments; for % Inhibition at 1 µM over V600EBRAF / inhibition at 1 µM: single dose 1 µM, mean ± S.D. of two experiments; for inhibition at 1 µM: read-out: % Inhibition at 1 µM over V600EBRAF
T1 construct: purchased Reaction Biology Corp. (Kinase HotSpot service)
T1 sequence (P15056 whole entry V600E): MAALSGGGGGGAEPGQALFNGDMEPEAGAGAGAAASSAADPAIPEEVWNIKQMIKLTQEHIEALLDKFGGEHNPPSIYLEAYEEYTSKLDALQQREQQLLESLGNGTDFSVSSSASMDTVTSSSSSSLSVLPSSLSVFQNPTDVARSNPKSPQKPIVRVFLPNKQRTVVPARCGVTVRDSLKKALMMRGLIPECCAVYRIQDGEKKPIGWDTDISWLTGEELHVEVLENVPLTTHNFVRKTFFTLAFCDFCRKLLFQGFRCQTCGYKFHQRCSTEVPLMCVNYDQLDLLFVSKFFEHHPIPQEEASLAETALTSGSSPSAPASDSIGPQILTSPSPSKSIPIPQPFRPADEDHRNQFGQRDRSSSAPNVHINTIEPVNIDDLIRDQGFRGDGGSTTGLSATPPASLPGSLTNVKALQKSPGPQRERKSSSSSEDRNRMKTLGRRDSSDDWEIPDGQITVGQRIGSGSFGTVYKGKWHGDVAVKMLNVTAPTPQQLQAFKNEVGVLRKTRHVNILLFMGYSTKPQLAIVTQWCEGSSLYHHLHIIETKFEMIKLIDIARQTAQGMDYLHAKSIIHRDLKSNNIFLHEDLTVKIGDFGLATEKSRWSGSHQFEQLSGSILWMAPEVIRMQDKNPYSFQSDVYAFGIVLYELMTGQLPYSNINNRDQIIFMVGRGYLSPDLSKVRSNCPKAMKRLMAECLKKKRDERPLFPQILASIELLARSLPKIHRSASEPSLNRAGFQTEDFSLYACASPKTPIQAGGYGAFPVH
Experimental: Reaction Biology Corp. Kinase HotSpotTM service
as §1, with “Proﬁler” for “Reaction Biology Corp. Kinase HotSpotTM service http://www.reactionbiology.com was used for screening of compounds IC50 Proﬁler”

SF-295 = test: NCI 60 cell line screen; type: cell-based, human; conditions: Homo sapiens; SF-295, CNS-Cancer; read-out: Percent growth
Experimental: (§2) Anticancer profiling over a panel of 60 cancer cell lines was carried out at the National Cancer Institute (NCI), Bethesda, Maryland, USA, https://dtp.cancer.gov/discovery_development/nci-60/methodology.htm (Last visit 22 September 2021), using the standard procedure (detailed procedure is located in the Supplementary Information page 50 s).
(§3) NCI standard procedure for 60 cell lines assay
(§4) The human tumor cell lines of the cancer screening panel are grown in RPMI 1640 mediu m containing 5% fetal bovine serum and 2 mM L-glutamine. For a typical screening experiment, cells are inoculated into 96 well microtiter plates in 100 μL at plating densities ranging from 5,000 to 40,000 cells/well depending on the doubling time of individual cell lines. After cell inoculation, the microtiter plates are incubated at 37° C, 5 % CO2, 95 % air and 100 % relative humidity for 24 h prior to addition of experimental drugs.
(§5) After 24 h, two plates of each cell line are fixed in situ with TCA, to represent a measurement of the cell population for each cell line at the time of drug addition (Tz). Experimental drugs are solubilized in dimethyl sulfoxide at 400-fold the desired final maximum test concentration (10 µM) and stored frozen prior to use. At the time of drug addition, an aliquot of frozen concentrate is thawed and diluted to twice the desired final maximum test concentration with co mp lete medium containing 50 μg/ml gentamicin. Additional four, 10-fold or ½ log serial dilutions are made to provide a total of five drug concentrations plus control. Aliquots of 100 μl of these different drug dilutions are added to the appropriate microtiter wells already containing 100 μl of medium, resulting in the required final drug concentrations.
(§6) Following drug addition, the plates are incubated for an additional 48 h at 37°C, 5 % CO2, 95 % air, and 100 % relative humidity. For adherent cells, the assay is terminated by the addition of cold TCA. Cells are fixed in situ by the gentle addition of 50 μl of cold 50 % (w/v) TCA (final concentration, 10 % TCA) and incubated for 60 minutes at 4°C. The supernatant is discarded, and the plates are washed five times with tap water and air dried. Sulforhodamine B (SRB) solution (100 μl) at 0.4 % (w/v) in 1 % acetic acid is added to each well, and plates are incubated for 10 minutes at room temperature. After staining, unbound dye is removed by washing five times with 1 % acetic acid and the plates are air dried. Bound stain is subsequently solubilized with 10 mM trizma base, and the absorbance is read on an automated plate reader at a wavelength of 515 nm. For suspension cells, the methodology is the same except that the assay is terminated by fixing settled cells at the bottom of the wells by g ently adding 50 μl of 80 % TCA (final concentration, 16 % TCA). Using the seven absorbance measurements [time zero, (Tz), control growth, (C), and test growth in the presence of drug at the five concentration levels (Ti)], the percentage growth is calculated at each of the drug concentrations levels. Percentage growth inhibition is calculated as:
(§7) [(Ti-Tz)/(C-Tz)] x 100 for concentrations for which Ti>/=Tz
(§8) [(Ti-Tz)/Tz] x 100 for concentrations for which Ti<Tz.
(§9) Three dose response parameters are calculated for each experimental agent. Growth inhibition of […]
(§10) resulting in a 50% reduction in the net protein increase (as measured by SRB staining) in control cells during the drug incubation. The drug concentration resulting in total growth inhibition […]
(§11) (TGI) is calculated from Ti = Tz.

RXF 393 = test: NCI 60 cell line screen; type: cell-based, human; conditions: Homo sapiens; RXF 393, Renal Cancer; read-out: Percent growth
Experimental: as §2, §3, §4, §5, §6, §7, §8, §9, §10, §11

OVCAR-4 = test: NCI 60 cell line screen; type: cell-based, human; conditions: for activity at 10 µM: Homo sapiens, OVCAR-4, Ovarian Cancer, read-out: Percent growth
Experimental: as §2, §3, §4, §5, §6, §7, §8, §9, §10, §11

T-47D = test: NCI 60 cell line screen; type: cell-based, human; conditions: for activity at 10 µM: Homo sapiens, T47D, Breast Cancer, read-out: Percent growth; for percent inhibition: NCI-60 heat map analysis
Experimental: as §2, §3, §4, §5, §6, §7, §8, §9, §10, §11

NCI-H226 = test: NCI 60 cell line screen; type: cell-based, human; conditions: for activity at 10 µM: Homo sapiens, NCI-H226, Non-Small Cell Lung Cancer, read-out: Percent growth; for percent inhibition: NCI-H226, NCI-60 heat map analysis
Experimental: as §2, §3, §4, §5, §6, §7, §8, §9, §10, §11

U251 = test: NCI 60 cell line screen; type: cell-based, human; conditions: Homo sapiens, U-251; U251, CNS-Cancer; read-out: Percent growth
Experimental: as §2, §3, §4, §5, §6, §7, §8, §9, §10, §11

SR = test: NCI 60 cell line screen; type: cell-based, human; conditions: for activity at 10 µM: Homo sapiens, Leukemia, read-out: Percent growth
Experimental: as §2, §3, §4, §5, §6, §7, §8, §9, §10, §11

K-562 = test: NCI 60 cell line screen; type: cell-based, human; conditions: for activity at 10 µM: Homo sapiens, K562, K-562, Leukemia, read-out: Percent growth
Experimental: as §2, §3, §4, §5, §6, §7, §8, §9, §10, §11

BRAF (wild-type) = molecular target: T2, BRAF (wild-type) (Homo sapiens, UniProt P15056); test: Reaction Biology kinase HotSpot enzyme assay; type: biochemical; conditions: 1 µM ATP; mean ± S.D. of two separate experiments
T2 construct: purchased Reaction Biology Corp. (Kinase HotSpot service)
T2 sequence (P15056 whole entry): as the sequence (P15056 whole entry V600E) above, with E600V counted along it
Experimental: The enzymatic assays were performed in Reaction Biology Corp. using the standard protocol at 1 µM ATP and threefold dilution factor (detailed procedure is found in the Supplementary Information page 52 s).
as §1

Chain of CRAF (P04049 whole entry): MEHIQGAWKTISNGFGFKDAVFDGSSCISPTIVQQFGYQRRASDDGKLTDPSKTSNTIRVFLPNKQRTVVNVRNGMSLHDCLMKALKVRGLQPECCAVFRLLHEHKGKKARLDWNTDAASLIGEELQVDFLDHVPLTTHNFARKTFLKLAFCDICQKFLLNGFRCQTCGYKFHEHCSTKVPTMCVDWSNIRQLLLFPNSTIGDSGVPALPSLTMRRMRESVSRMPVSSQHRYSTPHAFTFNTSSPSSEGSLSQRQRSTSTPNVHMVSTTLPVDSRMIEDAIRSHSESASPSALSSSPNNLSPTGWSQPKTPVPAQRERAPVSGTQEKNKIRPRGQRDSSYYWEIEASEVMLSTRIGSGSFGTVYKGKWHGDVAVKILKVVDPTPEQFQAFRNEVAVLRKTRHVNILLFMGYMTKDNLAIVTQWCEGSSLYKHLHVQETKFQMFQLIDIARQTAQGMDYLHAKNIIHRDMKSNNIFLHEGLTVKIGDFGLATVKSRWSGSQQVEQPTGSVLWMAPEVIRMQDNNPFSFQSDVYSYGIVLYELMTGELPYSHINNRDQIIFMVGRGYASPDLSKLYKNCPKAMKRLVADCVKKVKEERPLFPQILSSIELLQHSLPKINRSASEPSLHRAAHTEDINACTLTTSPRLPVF

Structure (SMILES) | IC50 (CRAF; read-out: IC50 CRAF) [nM] | IC50 (V600EBRAF) [nM] | % Inhibition at 1 µM over V600EBRAF (V600EBRAF) [%] | inhibition at 1 µM (V600EBRAF) [%] | activity at 10 µM (SF-295) [%] | activity at 10 µM (RXF 393) [%] | activity at 10 µM (OVCAR-4) [%] | percent inhibition (OVCAR-4; OVCAR-4, NCI-60 heat map analysis) [%] | activity at 10 µM (T-47D) [%] | percent inhibition (T-47D) [%] | activity at 10 µM (NCI-H226) [%] | percent inhibition (NCI-H226) | activity at 10 µM (U251) [%] | activity at 10 µM (SR) [%] | activity at 10 µM (K-562) [%] | IC50 (BRAF (wild-type)) [nM] | percent inhibition (SR; NCI-60 heat map analysis) | IC50 (CRAF; IC50 CRAF) [nM] | percent inhibition (K-562; K-562, NCI-60 heat map analysis)
O=S(=O)(NCCCNc1nccc(-n2cnc3ccccc32)n1)c1ccc(F)cc1 [12i, N-(3-((4-(1H-benzo [d]imidazol-1-yl)pyrimidin-2-yl)amino)propyl)-4-fluorobenzenesulfonamide] | 980 ± 44 | 530 ± 22 | 97.81 ± 0.82 | 98 | 70.6 | 163 | 44.2 | 56 | 25.5 | 75 | 64.1 | around 30% | 93.8 | 36.8 | 37.2 | 1330 ± 81 | – | – | –
O=S(=O)(NCCNc1nccc(-n2cnc3ccccc32)n1)c1ccc(F)cc1 [12b, N-(2-((4-(1H-benzo [d]imidazol-1-yl)pyrimidin-2-yl)amino)ethyl)-4-fluorobenzenesulfonamide] | 1340 ± 190 | 740 ± 51 | 75.17 ± 0.27 | 75 | 93.6 | 106 | 72.3 | – | 64.4 | – | 77.5 | – | 99.5 | 85.8 | 84 | 1510 ± 220 | – | – | –
O=S(=O)(NCCNc1nccc(-n2cnc3ccccc32)n1)c1ccc(Br)cc1 [12d, N-(2-((4-(1H-benzo [d]imidazol-1-yl)pyrimidin-2-yl)amino)ethyl)-4-bromobenzenesulfonamide] | 2100 ± 180 | 910 ± 19 | 69.28 ± 0.51 | 69 | 96.5 | 101 | 82.2 | – | 59.1 | – | 76.5 | – | 98.6 | 75.1 | 88.4 | 1790 ± 150 | – | – | –
Cc1ccc(S(=O)(=O)NCCNc2nccc(-n3cnc4ccccc43)n2)cc1 [12g, N-(2-((4-(1H-benzo [d]imidazol-1-yl)pyrimidin-2-yl)amino)ethyl)-4-methyl benzenesulfonamide] | 1480 ± 99 | 790 ± 42 | 82.11 ± 0.32 | 82 | 75.5 | 55.4 | 42.1 | – | 27.6 | 73 | 58.7 | around 40% | 85.2 | 53.6 | 56.1 | 1530 ± 260 | around 45% | – | –
O=S(=O)(NCCNc1nccc(-n2cnc3ccccc32)n1)c1ccccc1 [12a, N-(2-((4-(1H-benzo [d]imidazol-1-yl)pyrimidin-2-yl)amino)ethyl)benzenesulfonamide] | 2980 ± 210 | 1910 ± 140 | 30.35 ± 0.41 | 30 | 97.3 | 113 | 93.4 | – | 75.4 | – | 84.6 | – | 103 | 97.5 | 84.8 | 3250 ± 450 | – | – | –
O=S(=O)(NCCCNc1nccc(-n2cnc3ccccc32)n1)c1cccc2ccccc12 [12n, N-(3-((4-(1H-benzo [d]imidazol-1-yl)pyrimidin-2-yl)amino)propyl)naphthalene-1-sulfonamide] | – | 1280 ± 144 | 41.27 ± 0.46 | 41 | 81.2 | 105 | 66.7 | – | 44.7 | 56 | 77.8 | – | 90.8 | 75.4 | 67.6 | 3540 ± 175 | – | 1780 ± 156 | around 30%
O=S(=O)(NCCCNc1nccc(-n2cnc3ccccc32)n1)c1ccccc1 [12h, N-(3-((4-(1H-benzo [d]imidazol-1-yl)pyrimidin-2-yl)amino)propyl)benzenesulfonamide] | 2140 ± 78 | 1120 ± 98 | 49.54 ± 0.61 | 50 | 92.5 | 110 | 74.5 | – | 45.8 | 55 | 81 | – | 98.2 | 80 | 79.5 | 2320 ± 110 | – | – | –
O=S(=O)(NCCNc1nccc(-n2cnc3ccccc32)n1)c1ccc(Cl)cc1 [12c, N-(2-((4-(1H-benzo [d]imidazol-1-yl)pyrimidin-2-yl)amino)ethyl)-4-chlorobenzenesulfonamide] | 1490 ± 230 | 820 ± 24 | 70.55 ± 0.71 | 71 | 96.7 | 117 | 95.2 | – | 97.1 | – | 91.1 | – | 102 | 96.3 | 97.6 | 1380 ± 170 | – | – | –
